From ChEMBL document CHEMBL1201862, “PubChem BioAssay data set” (2004) come the findings set out here.

Test systems include SN12C; MCF7; SF-539; SF-295; KM12; SR; NCI-H226; UACC-257; ACHN; NCI-H23; UO-31; MDA-MB-435; SK-MEL-28; DU-145; OVCAR-3; SF-268; M14; SNB-75; HCC 2998.
Common to all, as to test: NCI tumour cell line growth inhibition, 48 h

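Results reflect a 48-hour exposure of cells in 96-well plates to compound at five concentrations. At the GI50, growth is halved.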 Activity calls are given as the source filed them. Rule as the data show it: active = GI50 up to about 1.1 µM and inactive = higher.

As to `COc1nc2ccc(Cl)c(C(O)c3ccccc3)c2nc1OC` (stereo not given), the GI50 in the assay with SN12C was 19.7 µM (inactive); with MCF7 it was 29.7 µM (inactive); in the assay with SF-539, 18.3 µM (inactive); in the assay with SF-295 it was 10.5 µM (inactive); in the assay on KM12 it was 29.9 µM (inactive); with SR, 6.52 µM (inactive). The GI50 in the assay with NCI-H226 is 16.3 µM (inactive); in the assay with UACC-257 it was 24.6 µM (inactive); in the assay with ACHN it was 30.2 µM (inactive); in the assay with NCI-H23 it was 17.2 µM (inactive); in the assay with UO-31, 22.1 µM (inactive); in the assay on MDA-MB-435, 12.5 µM (inactive). Further, the GI50 in the assay with SK-MEL-28 is 35.5 µM (inactive); in the assay with DU-145, 32.3 µM (inactive); in the assay with OVCAR-3 it was 24.1 µM (inactive); in the assay on SF-268, 23.4 µM (inactive); with M14 it was 17.2 µM (inactive); with SNB-75 it was 33 µM (inactive).

For `OC1C=C2C3CN(Cc4cc5c(cc43)OCO5)[C@H]2C[C@@H]1O` (stereo not given in full), the GI50 was 5.12 µM (inactive) in the assay with SN12C; 2.96 µM (inactive) in the assay on MCF7; 16.9 µM (inactive) in the assay on SF-539; 7.38 µM (inactive) in the assay with SF-295; 3.86 µM (inactive) in the assay on KM12; 2.94 µM (inactive) with SR. Also, the GI50 in the assay on NCI-H226 was > 100 µM (inactive); in the assay with UACC-257, 2.07 µM (inactive); with ACHN it was 2.65 µM (inactive); in the assay with NCI-H23, 5.96 µM (inactive); with UO-31, 6.3 µM (inactive); with MDA-MB-435, 3.94 µM (inactive). For the same compound, the GI50 is 11.5 µM (inactive) in the assay on SK-MEL-28; 2.64 µM (inactive) in the assay on DU-145; 7.13 µM (inactive) in the assay on OVCAR-3; 7.28 µM (inactive) in the assay on SF-268; 4.22 µM (inactive) with M14; 0.794 µM (active) with SNB-75.

As to `N#CCC1COc2ccccc2O1` (stereo not given), the GI50 in the assay with SN12C, with MCF7, in the assay with SF-539, in the assay on SF-295, in the assay on KM12 and in the assay with SR was > 10 µM (inactive) in each case. The GI50 with HCC 2998, in the assay with UACC-257, with ACHN, with NCI-H23, in the assay on MDA-MB-435 and with SK-MEL-28 was > 10 µM (inactive) each time. In addition, the GI50 in the assay with DU-145, with SF-268, with M14 and in the assay on SNB-75 was > 10 µM (inactive) in each case.

With `COC(=O)c1sc(=S)sc1SCc1cccc(CSc2sc(=S)sc2C(=O)OC)c1`, the GI50 is > 100 µM (inactive) in the assay with SN12C; > 100 µM (inactive) in the assay with MCF7; 24.6 µM (inactive) in the assay with SF-539; 26 µM (inactive) in the assay on SF-295; > 100 µM (inactive) in the assay with KM12; > 100 µM (inactive) in the assay on SR. The GI50 in the assay with HCC 2998 was > 100 µM (inactive); in the assay on UACC-257 it was > 100 µM (inactive); in the assay with ACHN it was 28.8 µM (inactive); in the assay with NCI-H23, 27.9 µM (inactive); with UO-31 it was > 100 µM (inactive); with MDA-MB-435, > 100 µM (inactive). In addition, the GI50 was > 100 µM (inactive) in the assay with SK-MEL-28; > 100 µM (inactive) in the assay with DU-145; 63.4 µM (inactive) in the assay with OVCAR-3; 44.5 µM (inactive) with SF-268; 71.3 µM (inactive) in the assay with M14; 11.6 µM (inactive) with SNB-75.

As for `COC(=O)C(Cc1ccccc1)NS(=O)(=O)c1ccc(-c2c3nc(c(-c4ccc(S(=O)(=O)NC(Cc5ccccc5)C(=O)OC)cc4)c4ccc([nH]4)c(-c4ccc(S(=O)(=O)NC(Cc5ccccc5)C(=O)OC)cc4)c4nc(c(-c5ccc(S(=O)(=O)NC(Cc6ccccc6)C(=O)OC)cc5)c5ccc2[nH]5)C=C4)C=C3)cc1` (stereo not given), the GI50 with SN12C is > 100 µM (inactive); in the assay on MCF7, > 100 µM (inactive); in the assay with SF-539, > 100 µM (inactive); in the assay with SF-295, 54.6 µM (inactive); with KM12, > 100 µM (inactive); in the assay on SR it was > 100 µM (inactive). Moreover, the GI50 with HCC 2998, in the assay with UACC-257, in the assay with ACHN, in the assay with NCI-H23, with UO-31 and in the assay on MDA-MB-435 was > 100 µM (inactive) throughout. The GI50 in the assay on SK-MEL-28 is > 100 µM (inactive); with DU-145 it was > 100 µM (inactive); in the assay on OVCAR-3 it was > 100 µM (inactive); in the assay on SF-268 it was > 100 µM (inactive); in the assay on M14, > 100 µM (inactive); in the assay on SNB-75 it was 12.5 µM (inactive).

On to `COc1ccc(/C=N/c2ccc(-c3nc4ccccc4[nH]3)cc2)cc1OC`, for which the GI50 with SN12C is > 100 µM (inactive); in the assay with MCF7, 25.9 µM (inactive); in the assay with SF-539 it was > 100 µM (inactive); in the assay on SF-295 it was > 100 µM (inactive); in the assay with KM12 it was > 100 µM (inactive); with SR, 81.7 µM (inactive). In addition, the GI50 in the assay with NCI-H226, in the assay on UACC-257, in the assay with ACHN, in the assay on NCI-H23, in the assay with UO-31 and in the assay on MDA-MB-435 was > 100 µM (inactive) in each case. In addition, the GI50 in the assay with SK-MEL-28 is > 100 µM (inactive); with DU-145, > 100 µM (inactive); in the assay with OVCAR-3 it was > 100 µM (inactive); in the assay with SF-268 it was 80 µM (inactive); in the assay on M14 it was > 100 µM (inactive); with SNB-75, 22.3 µM (inactive).

Turning to `COc1ccc(C2=Nc3c(nc(SC)[nH]c3=O)NC(c3ccccc3)C2)cc1` (stereo not given), the GI50 with SN12C was 20.9 µM (inactive); with MCF7 it was 17.1 µM (inactive); in the assay with SF-539, 19.4 µM (inactive); in the assay on SF-295, 27.4 µM (inactive); in the assay on KM12, 16.6 µM (inactive); with SR, 73.3 µM (inactive). In addition, the GI50 was 26.2 µM (inactive) in the assay on NCI-H226; 22.9 µM (inactive) in the assay with UACC-257; 21.8 µM (inactive) with ACHN; 20.6 µM (inactive) in the assay on NCI-H23; 20.8 µM (inactive) in the assay with UO-31; 29.2 µM (inactive) in the assay on MDA-MB-435. In addition, the GI50 was > 10 µM (inactive) with SK-MEL-28; 25.2 µM (inactive) in the assay on DU-145; 27.5 µM (inactive) in the assay with OVCAR-3; 25.4 µM (inactive) in the assay with M14; 17.8 µM (inactive) in the assay on SNB-75.

In the case of `c1ccc(Sc2nc(Sc3ccccc3)nc(Sc3ccccc3)n2)cc1`, the GI50 in the assay on SN12C is > 100 µM (inactive); with MCF7, 26.5 µM (inactive); in the assay with SF-539 it was 31.7 µM (inactive); with SF-295, 63.7 µM (inactive); in the assay with KM12, 13.9 µM (inactive); with SR it was > 100 µM (inactive). Further, the GI50 in the assay on NCI-H226 was 25.9 µM (inactive); in the assay on HCC 2998, 18.1 µM (inactive); in the assay with UACC-257, 30.3 µM (inactive); with ACHN it was 29.8 µM (inactive); with NCI-H23 it was > 100 µM (inactive); in the assay on UO-31 it was 57 µM (inactive). Moreover, the GI50 in the assay with MDA-MB-435 is 52.1 µM (inactive); in the assay with SK-MEL-28 it was 43.7 µM (inactive); in the assay with DU-145, 21.1 µM (inactive); in the assay with OVCAR-3 it was 13.3 µM (inactive); with SF-268, 32 µM (inactive); in the assay on M14 it was > 100 µM (inactive).

Take `COc1ccc(-c2oc3cc(O)cc(O)c3c(=O)c2OC)cc1` [ERMANIN]: the GI50 in the assay on MCF7 was 38.5 µM (inactive); in the assay on SF-295, 26.6 µM (inactive); in the assay with SR, 19.5 µM (inactive); with HCC 2998, 26 µM (inactive); with UACC-257, 59.8 µM (inactive); with ACHN it was 24.3 µM (inactive). For the same compound, the GI50 with UO-31 is 21.6 µM (inactive); in the assay on MDA-MB-435, 17.8 µM (inactive); in the assay with SK-MEL-28 it was 27 µM (inactive); in the assay with DU-145, 27.2 µM (inactive); in the assay with OVCAR-3, 21 µM (inactive); in the assay with SF-268 it was 22.1 µM (inactive). Besides, the GI50 in the assay on M14 is 37.2 µM (inactive).

In the case of `S=C1NC(c2ccccc2)NC(c2ccccc2)S1` (stereo not given), the GI50 in the assay with SN12C was > 100 µM (inactive); with MCF7, 28.2 µM (inactive); with SF-539, > 100 µM (inactive); with SF-295 it was > 100 µM (inactive); with KM12, > 100 µM (inactive); with SR, > 100 µM (inactive). In addition, the GI50 in the assay with NCI-H226 is > 100 µM (inactive); in the assay with UACC-257, 34.6 µM (inactive); with ACHN it was > 100 µM (inactive); in the assay on NCI-H23 it was > 100 µM (inactive); in the assay with UO-31 it was > 100 µM (inactive); in the assay on MDA-MB-435, > 100 µM (inactive). In addition, the GI50 in the assay with SK-MEL-28, in the assay on DU-145, in the assay with OVCAR-3, in the assay with SF-268, with M14 and in the assay on SNB-75 was > 100 µM (inactive) throughout.

`O=C1NC2=NOC(=O)NC2=NO1`: the GI50 in the assay on SN12C, with MCF7, with SF-539, in the assay with SF-295, in the assay on KM12 and with NCI-H226 was > 200 µM (inactive) throughout. For the same compound, the GI50 in the assay with HCC 2998, with UACC-257, in the assay on ACHN, in the assay on NCI-H23, in the assay with UO-31 and in the assay on MDA-MB-435 was > 200 µM (inactive) each time. Further, the GI50 in the assay with SK-MEL-28, with DU-145, in the assay on OVCAR-3, in the assay with SF-268, in the assay with M14 and in the assay on SNB-75 was > 200 µM (inactive) throughout.
